This is an account of results in patent publication US20250145633A1, “SUBSTITUTED FURANOPYRIMIDINE COMPOUNDS AS PDE1 INHIBITORS” (Dart NeuroScience, LLC, priority 2017, published 2025).

This assay deals with human PDE1B enzyme (Homo sapiens (Human), UniProt Q01064). Kind of assay: IMAP TR-FRET PDE1B enzymatic assay. It is filed as biochemical. Conditions: negative log of half-maximal molar inhibitory concentration; 200 nM FAM-cAMP; values given as bins; read-out: PDE1b (pIC50) (converted). In a few lines: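 Full-length GST-tagged human PDE1B (250 pg/well) in IMAP BSA buffer with 10 U/ml calmodulin and 2.5 mM CaCl2; compound pre-incubated 5 min at room temperature, then 200 nM (final) FAM-cAMP for 30 min. IMAP binding reagent/Tb added, 1 h; TR-FRET 520/490 ratio read. IC50 from sigmoidal dose-response fit.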
For orientation: TR-FRET usually uses a lanthanide donor and a delayed reading to cut background.

The structures appear in SMILES notation.

Consider `Cc1oc2ncnc(NC3(C)CC3)c2c1C(=O)NCc1noc(C(F)(F)Cl)n1` [Example 626, N-{[5-(Chlorodifluoromethyl)-1,2,4-oxadiazol-3-yl]methyl}-6-methyl-4-[(1-methylcyclopropyl)amino]furo[2,3-d]pyrimidine-5-carboxamide], for which the IC50 was 10 to 100 nM. For `Cc1noc(CNC(=O)c2c(C)oc3ncnc(NC4(C)CC4)c23)n1` [Example 627, 6-Methyl-N-[(3-methyl-1 2 4-oxadiazol-5-yl)methyl]-4-[(1-methylcyclopropyl)amino]furo[2,3-d]pyrimidine-5-carboxamide], the IC50 was 10 to 100 nM. On to `Cc1oc2ncnc(NC3(C)CC3)c2c1C(=O)N1CCc2c(ncnc2C(C)C)C1` [Example 628, 6-Methyl-N-(1-methylcyclopropyl)-5-[4-(propan-2-yl)-5H,6H,7H,8H-pyrido[3,4-d]pyrimidine-7-carbonyl]furo[2,3-d]pyrimidin-4-amine], for which the IC50 is 10 to 100 nM.

In the case of `COc1ncnc2c1CCN(C(=O)c1c(C)oc3ncnc(NC4(C)CC4)c13)CC2` [Example 629, 5-{4-Methoxy-5H,6H,7H,8H,9H-pyrimido[4,5-d]azepine-7-carbonyl}-6-methyl-N-(1-methylcyclopropyl)furo[2,3-d]pyrimidin-4-amine], the IC50 is 100 to 1000 nM. For the compound `Cc1oc2ncnc(NC3(C)CC3)c2c1C(=O)N1CCc2cccnc2C1` [Example 630, 6-Methyl-N-(1-methylcyclopropyl)-5-(5,6,7,8-tetrahydro-1,7-naphthyridine-7-carbonyl)furo[2,3-d]pyrimidin-4-amine], the IC50 is 10 to 100 nM. On to `Cc1oc2ncnc(NC3(C)CC3)c2c1C(=O)N1CCc2ncccc2C1` [Example 631, 6-Methyl-N-(1-methylcyclopropyl)-5-(5,6,7,8-tetrahydro-1,6-naphthyridine-6-carbonyl)furo[2,3-d]pyrimidin-4-amine], for which the IC50 is 100 to 1000 nM.

With `Cc1cc2n(n1)CCN(C(=O)c1c(C)oc3ncnc(NC4(C)CC4)c13)C2` [Example 632, 6-Methyl-5-f{2-methyl-4H,5H,6H,7H-pyrazolo[1,5-a]pyrazine-5-carbonyl}-N-(1-methylcyclopropyl)furo[2,3-d]pyrimidin-4-amine], the IC50 was 10 to 100 nM. Take `Cc1cn2c(n1)CN(C(=O)c1c(C)oc3ncnc(NC4(C)CC4)c13)CC2` [Example 633, 6-Methyl-5-{2-methyl-5H,6H,7H,8H-imidazo[1,2-a]pyrazine-7-carbonyl}-N-(1-methylcyclopropyl)furo[2,3-d]pyrimidin-4-amine]: the IC50 is 100 to 1000 nM. The value for `COc1cc2c(cn1)CN(C(=O)c1c(C)oc3ncnc(NC4(C)CC4)c13)CC2` [Example 634, 5-(6-Methoxy-1,2,3,4-tetrahydro-2,7-naphthyridine-2-carbonyl)-6-methyl-N-(1-methylcyclopropyl)furo[2,3-d]pyrimidin-4-amine] was 10 to 100 nM.

For the compound `COc1ccc2c(n1)CCN(C(=O)c1c(C)oc3ncnc(NC4(C)CC4)c13)C2` [Example 635, 5-(2-Methoxy-5,6,7,8-tetrahydro-1,6-naphthyridine-6-carbonyl)-6-methyl-N-(1-methylcyclopropyl)furo[2,3-d]pyrimidin-4-amine], the IC50 is 10 to 100 nM. On to `Cc1oc2ncnc(NC3(C)CC3)c2c1C(=O)N1CCn2nc(C#N)cc2C1` [Example 636, 5-{6-Methyl-4-[(1-methylcyclopropyl)amino]furo[2,3-d]pyrimidine-5-carbonyl}-4H,5H,6H,7H-pyrazolo[1,5-a]pyrazine-2-carbonitrile], for which the IC50 is 100 to 1000 nM. In the case of `Cc1oc2ncnc(NC3(C)CC3)c2c1C(=O)N1CCc2ccncc2C1` [Example 637, 6-Methyl-N-(1-methylcyclopropyl)-5-(1,2,3,4-tetrahydro-2 7-naphthyridine-2-carbonyl)furo[2,3-d]pyrimidin-4-amine], the IC50 is 100 to 1000 nM.
